“Also recorded” adds a separate entry of the source.
Tests used:
[1] = system: cyclin D1, cyclin E and p27 in MCF-7 cells; assay: Cell cycle protein levels by Western analysis (cyclin D1, cyclin E, p27); format: cell-based; conditions: 1400 W 10 μM or mevalonate 20 μM
Protocol: A (Table): The cell cycle distribution of MCF-7 cells treated with either simvastatin or fluvastatin (5-10 μM) for 40 h in the presence or 1400 W (10 μM) or mevalonate (20 μM). The cell sorting was performed by flow cytometry as described in “Materials and Methods.” B: Cells were treated with simvastatin or fluvastatin (10 μM) in the presence or absence of 1400 W (10 μM) or mevalonate (20 μM) for 40 h and cyclins D1 and E protein levels were measured by the Western analysis using the corresponding polyclonal or monoclonal antibodies. Data are representative of three separate experiments.
After treatment with statins, cells were washed with ice-cold DPBS and resuspended in 150 μl of radioimmune precipitation assay buffer (20 mM Tris-HCl, pH 7.4, 2.5 mM EDTA, 1% Triton X-100, 1% sodium deoxycholate, 1% SDS, 100 mM NaCl, 100 mM sodium fluoride) containing 1 mM sodium vanadate, 10 μg/ml aprotinin, 10 μg/ml leupeptin, and 10 μg/ml pepstatin inhibitors. Cells were homogenized by passing the suspension through a 25-gauge needle (20 strokes). The lysate was centrifuged at 750×g for 10 min at 4° C. to pellet out the nuclei. The remaining supernatant was centrifuged for 30 min at 12,000×g. Protein was determined using the Lowry method and 50 μg of the lysate was used for the Western blot analysis. […] The band was detected using the ECL method (Amersham Biosciences).

MCF-7 cells [2] = assay: Cell cycle analysis by flow cytometry; format: cell-based; conditions: 1400 W 10 μM, mevalonate 20 μM
Protocol: For DNA content analysis, harvested cells were centrifuged at 1,000×g for 5 min, fixed by the gradual addition of ice-cold 70% ethanol, and washed with PBS. Cells were then treated with RNase (10 μg/mL) for 30 min at 37° C., washed once with PBS, and resuspended and stained in 1 mL of 69 μmol/L propidium iodide in 38 mmol/L sodium citrate for 30 min at room temperature. The cell cycle phase distribution was determined by analytic DNA flow cytometry as described in (Vindelov L, et al. Methods Cell Biol, 33:127-37, 1990). The percentage of cells in each phase of the cell cycle was analyzed using a Modfit software (Verity Software House, Topsham, Me.).
As NO has previously been reported to exert tumor cell cycle alterations (Pervin S, et al. Natl Acad Sci USA 98:3583-3588, 2001), we investigated the cytostatic effect of statins in MCF-7 cells. MCF-7 cells were treated with simvastatin and fluvastatin for […] in the presence and absence of 1400 W (10 μM) and mevalonate (20 μM). Cell cycle progression was examined using FACScan flow cytometry analysis. […] As cell cycle progression from […] involves activations of the cell regulatory proteins, cyclins D and E, we investigated the effects of statins and iNOS inhibitor on the cell cycle proteins. […]

[3] = system: NO2-/NO3- levels in MCF-7 cells; assay: Nitrite and nitrate measurements by chemiluminescence (NO analyzer); format: cell-based; conditions: for effect on statin-induced NO / NO2-/NO3- levels: with simvastatin or fluvastatin (10 μM), 40 h, mevalonate 20 μM, 1400 W 10 μM, sepiapterin 50 μM, compared to statin alone
Protocol: Briefly, following treatments, cells were washed three times with DPBS after aspirating the medium. To this, 1 ml of Hanks' balanced salt mixture containing 25 μM L-arginine was added and incubated for 30 min at 37° C. The medium was collected and centrifuged for 5 min at 5000 rpm, and 50 μl of the clear supernatant was used for nitrate and nitrite analysis. Each sample was analyzed in triplicate.

MCF-7 cells [4] = assay: Apoptosis by TUNEL assay; format: cell-based; conditions: with simvastatin or fluvastatin 5-10 μM, 48 h, 1400 W 10 μM, sepiapterin 50 μM, mevalonate 20 μM
From the text: Measurement of Apoptosis by TUNEL Assay:
The terminal deoxynucleotidyl transferase-mediated nick-end labeling (TUNEL) assay was used for microscopic detection of apoptosis (Kotamraju S, et al. J Biol Chem, 277:17179-87, 2002). This assay is based on labeling of 3′ free hydroxyl ends of the fragmented DNA with fluorescein-dUTP catalyzed by terminal deoxynucleotidyl transferase. Procedures were followed according to a commercially available kit (ApoAlert) from Clontech. […] The apoptotic cells were detected by fluorescence microscopy equipped with rhodamine and FITC filters. The quantification of apoptosis was performed using the Metamorph image analysis package.
Under these conditions, NO2^−/NO3^− levels were decreased (FIG. 4B). […] Further verification that iNOS is involved in […] NO was obtained from inhibition of geranylgeranylation and farnesylation. […] In contrast, FTI-277 (farnesylation inhibitor) and sepiapterin had no effect on NO2^−/NO3^− levels (FIG. 4C). […] In the TUNEL assay, cells were treated with simvastatin or fluvastatin (5-10 μM) for 48 h in the presence or absence of 1400 W (10 μM), sepiapterin (50 μM) or mevalonate (20 μM) and stained for TUNEL-positive cells as an index of DNA fragmentation monitored by fluorescence microscopy (original magnification, ×100). Photographs were taken for the overlaid images of propidium iodide-and FITC-stained cells (TUNEL-positive cells). Yellow and red denote apoptotic and nonapoptotic cells, respectively. We observed that the TUNEL positive staining was enhanced in statin-treated MCF-7 cells. […] Pretreatment with 1400 W or mevalonate caused a decrease in the TUNEL positive cells.

MCF-7 cells [5] = assay: Soft agar assay for colony formation (anchorage-independent growth); format: cell-based; conditions: for visible colony formation in soft agar: MCF-7 cells, 10 μM, treated 40 h, colonies after 21 days
Protocol: Soft Agar Assay for Colony Formation:
After cells were treated with various conditions, they were seeded in six-well plates. The plates were first covered with phenol red-free MEM containing 0.6% agar and 10% FBS. The middle layer contained cells (5×10^3) in phenol red-free MEM with 0.35% agar and 10% FBS. The top layer, consisting of the medium, was added to prevent drying of the agar in the plates. The plates were incubated for 21 days, after which the plates were stained in 0.5 ml of 0.005% crystal violet for 1 h and the cultures were inspected and photographed. The colony efficiency (CE) was determined by a count of the number of colonies greater than […] in diameter, which was calculated as the average of colonies counted at 50× magnification in five individual fields manually (Liu S, et al. Oncogene, 23:1256-62, 2004).
The long-term effects of statins and the inhibitors on the proliferation and survival of MCF-7 cells were determined using clonogenic assays (Ramanathan B, et al. Cancer Res, 65:8455-60, 2005). The extent of malignancy of cells corresponds to the attainment of anchorage-independent growth (Liu S, et al. Oncogene, 23:1256-62, 2004). MCF-7 cells were treated with simvastatin or fluvastatin in the presence or absence of either 1400 W or mevalonate or sepiapterin. In separate experiments, cells were treated with either GGTI-298 or FTI-277. At the end of the treatments, approximately 5×10^3 cells were seeded onto a soft agar to determine their clonogenic efficiency after 21 days. […] In the presence of either 1400 W or mevalonate, the colony formation was restored in statin-treated cells (FIG. 6B).

[6] = system: MCF-7 breast cancer cells; assay: MTT reduction cytotoxicity assay in MCF-7 cells; conditions: 48 h; for MCF-7 cell death (MTT assay) by isoprenylation inhibitors: 10-20 μM
Protocol: MTT Reduction Cytotoxicity Assay:
MTT is taken up by cells and is reduced to a colored formazon product that can be detected by spectrophotometry (max=562 nm). Reduction of MTT is dependent upon the mitochondrial respiratory function, and thus measures the relative number of viable cells in the culture. After the treatment was completed, MCF-7 cells were washed twice with DPBS and taken in a ml of MEM without FBS and incubated with 5 mg/ml MTT solution for 1 h at 37° C. Medium was removed and cells were solubilized in DMSO. The absorption was measured at 562 nm with reference at 630 nm.
We assessed the effectiveness of simvastatin and fluvastatin to induce cytotoxicity in MCF-7 cells. MCF-7 breast cancer cells were treated with fluvastatin or simvastatin at different concentrations (0.5-20 μM) for 24-48 h. The changes in the number of viable cells were determined using the MTT assay that monitors the intracellular conversion of MTT to formazon spectrophotometrically max=562 nm).

MCF-7 cells [7] = assay: 3H-thymidine uptake (DNA synthesis / cell proliferation); format: cell-based; conditions: 10-20 μM
Protocol: Thymidine Uptake Studies:
DNA synthesis was measured by monitoring the uptake of tritiated thymidine, [^3H]TdR (Perkin-Elmer, Boston, Mass.). Cells (5×10^5/ml) were cultured with different concentrations of simvastatin or fluvastatin (0-10 μM) in the presence or absence of mevalonate (20 μM), 1400 W, or sepiapterin. Cells were pulse-chased with [^3H]TdR [0.5 μCi (0.185 MBq)/well during the last 3 h of a 24 h culture, harvested onto glass filters with an automatic cell harvester (Cambridge Technology, Cambridge, Mass.), and counted using the LKB Betaplate scintillation counter (Wallac, Gaithersburg, Md.). All experiments were performed in triplicate and repeated three times.

iNOS in MCF-7 cells = assay: iNOS mRNA (RT-PCR) and protein (Western) levels; format: cell-based; conditions: MCF-7 cells, 10-20 μM, 40 h, Western analysis
Protocol: After treatment with statins, cells were washed with ice-cold DPBS and resuspended in 150 μl of radioimmune precipitation assay buffer (20 mM Tris-HCl, pH 7.4, 2.5 mM EDTA, 1% Triton X-100, 1% sodium deoxycholate, 1% SDS, 100 mM NaCl, 100 mM sodium fluoride) containing 1 mM sodium vanadate, 10 μg/ml aprotinin, 10 μg/ml leupeptin, and 10 μg/ml pepstatin inhibitors. Cells were homogenized by passing the suspension through a 25-gauge needle (20 strokes). The lysate was centrifuged at 750×g for 10 min at 4° C. to pellet out the nuclei. The remaining supernatant was centrifuged for 30 min at 12,000×g. Protein was determined using the Lowry method and 50 μg of the lysate was used for the Western blot analysis. Proteins were resolved using the SDS-polyacrylamide gels and blotted onto nitrocellulose membranes. Membranes were washed with TBS (140 mM NaCl, 50 mM Tris-HCl, pH 7.2) containing 0.1% Tween 20 (TBST) and 5% skim milk to block the non-specific protein binding. Membranes were incubated with 1 μg/ml rabbit anti-iNOS polyclonal antibody (Abeam, Cambridge, Mass.), mouse anti-cyclin D1 antibody, mouse anti-cyclin E antibody (BD Biosciences, San Jose, Calif.) or rabbit anti-p27 antibody (Chemicon International, Temecula, Calif.) in TBST for overnight at 4° C., washed 5 times with TBST, and then incubated with goat anti-rabbit or rabbit anti-mouse IgG-horseradish peroxidase-conjugated secondary antibody (1:5,000) for 1.5 h at room temperature. The band was detected using the ECL method (Amersham Biosciences).
Following the treatments, medium was aspirated and 1 ml of TRIzol reagent (Invitrogen) was added and total RNA was extracted using the manufacturer's protocol. Five μg of RNA was used for the first strand cDNA synthesis using a first strand cDNA synthesis kit (Amersham Biosciences). […]

Compound | effect on statin-induced NO / NO2-/NO3- levels [3] | effect on statin-induced TUNEL-positive cells (proapoptotic effect) (MCF-7 cells [4]) | MCF-7 cell death (MTT assay) by isoprenylation inhibitors [6] | loss of MCF-7 cell proliferation (3H-thymidine uptake) by isoprenylation inhibitors (MCF-7 cells [7]) | iNOS protein levels by isoprenylation inhibitors (iNOS in MCF-7 cells) | visible colony formation in soft agar (MCF-7 cells [5]) | other results
CC(=N)NCc1cccc(CN)c1 [1400 W, N-(3-aminomethyl)benzylacetamidine] | inhibited; also recorded: decreased | decrease | – | – | – | – | effect on statin-induced decrease of cyclin D1 and cyclin E [1]: restored in part; effect on statin-induced cell cycle alterations (MCF-7 cells [2]): partially reversed; colony formation in statin-treated cells in the presence of modulator (MCF-7 cells [5]; 1400 W 10 μM or mevalonate 20 μM with statin 10 μM): restored
COC(=O)[C@H](CCSC)NC(=O)c1ccc(NC[C@@H](N)CS)cc1-c1ccccc1 [FTI-277, methyl {N-[2-phenyl-4-N[2(R)-amino-3-mecaptopropylamino]benzoyl]}-methionate] | – | – | not | not | not | not | –
COC(=O)[C@H](CC(C)C)NC(=O)c1ccc(NC[C@@H](N)CS)cc1-c1cccc2ccccc12 [GGTI-298, N-4-[2(R)-amino-3-mercaptopropyl]amino-2-naphthylbenzoyl-(L)-leucine methyl ester] | – | – | induced MCF-7 cell death | loss of cell proliferation | dose-dependently induced | drastically lowered | –
C[C@H](O)C(=O)C1=Nc2c(nc(N)[nH]c2=O)NC1 [sepiapterin] | significantly increased | exacerbated | – | – | – | – | NO2-/NO3- levels, sepiapterin with FTI-277 ([3]; MCF-7 cells): no effect; NO2-/NO3- levels, sepiapterin with GGTI-298 compared to GGTI-298 alone ([3]; MCF-7 cells): significantly increased; NO2-/NO3- levels, sepiapterin alone ([3]; in the absence of statin): did not increase; effect on statin-induced TUNEL-positive cells (proapoptotic effect) (MCF-7 cells [4]; listed as Sepiapterin): further augmented; colony growth, sepiapterin supplementation with simvastatin or fluvastatin (MCF-7 cells [5]; lower concentration of simvastatin or fluvastatin (5 μM), sepiapterin 50 μM): completely inhibited
CC(C)=CCC/C(C)=C/CC/C(C)=C/CC/C=C(\C)CC/C=C(\C)CCC=C(C)C [squalene] | – | – | – | – | – | – | effect on statin-induced MCF-7 cell cytotoxicity (MTT assay) ([6]; pretreatment before simvastatin or fluvastatin (10 μM), mevalonate 20 μM, 1400 W 10 μM): did not prevent
N-nitroso-fluvastatin [NO-fluvastatin] | – | – | – | – | – | – | potency in causing MCF-7 cell death compared to fluvastatin alone (MTT assay) ([6]; 0-1 μM): more potent

Reference: US20070219208A1, “Methods for Treating Cancer” (priority 2006, published 2007)
